Read-outs that look alike come from different tables or passages of the source.

Take `Cc1ccc(C(C)C)cc1O` [Example 2, Carvacerol]: the “H2O (clarity)” value by setting is: (Solvent C8-10 Acid Ethanol, Surfactant/Solubilizer Polysorbate 20) “Clear”; (Solvent Ethanol, Surfactant/Solubilizer Polysorbate 20) “Cloudy”; (Solvent NONE, Surfactant/Solubilizer Polysorbate 20 Polysorbate 80) “Clear”; (Solvent NONE, Surfactant/Solubilizer Quat 242 Ti-Nat) “Clear”; (Solvent Propanediol, Surfactant/Solubilizer AB-1 (first entry)) “Not Clear”; (Solvent Propanediol, Surfactant/Solubilizer AB-1 (second entry)) “Not Clear”. In addition, the “H2O (clarity)” value is, setting by setting: (Solvent Propanediol, Surfactant/Solubilizer Polyglycerol) “Not Clear”; (Solvent Propanediol, Surfactant/Solubilizer Polyglycerol D9) “Not Clear”; (Solvent Propanediol, Surfactant/Solubilizer Polyglycerol D9 SugarNate) “Not Clear”; (Solvent Propanediol, Surfactant/Solubilizer Quat 242 Ti-Nat) “Not Clear”; (Solvent Propanediol, Surfactant/Solubilizer Quat 242 Ti-Nat AB-1) “Not Clear”; (Solvent Propanediol, Surfactant/Solubilizer SugaNate 160) “Not Clear”.

Values taken from patent publication US12010991B1, “Microemulsion with disinfectant properties” (priority 2021, dated 2024).
